Test results reported in US12590118B2, “Salt and crystal form of steroid derivative regulator” (Shanghai Hansoh Biomedical Co., Ltd., priority 2019, dated 2026).
Converted amounts (≈) assume the structure as drawn.

Tests used:
Format in all cases: physicochemical
[1] = Competitive experiment of different crystal forms of the free base; conditions: 40° C.
Description: The stability among crystal forms I, II and III of the free base of Example 40 was investigated, so as to select the stable crystal form.
Multiple portions of about 20 mg of crystal forms I, II and III of the free base of Example 40 were accurately weighed, and mixed in pairs in equal amounts. Methyl tert-butyl ether and n-heptane were added respectively, and the resulting mixture was stirred at 40° C. for 7 days. The mixture was centrifuged at high speed, the supernatant was removed, and the resulting solid precipitate was vacuum dried in an oven at 40° C. and characterized by XRPD.

[2] = Hygroscopicity experiment (DVS); conditions: for hygroscopicity (in words): DVS; for Hygroscopicity (25° C./80% RH): DVS vapour sorption weight gain at 80% RH
Description: The hygroscopicity of crystal forms I, II and III of the free base of Example 40 under different relative humidity conditions was investigated, so as to provide a basis for screening of the crystal form and salt of the compound, production and storage.
10 to 15 mg of the free base of Example 40 was placed in the sample chamber of DVS. DVS was carried out, and the vapour sorption weight gain percentage of the compound at 80% RH was recorded at the same time.

[3] = Solubility experiment (thermodynamic solubility at 37° C.); conditions: 24 hours
Description: The solubility of the free base and salt of the compound in water, Fasted State Simulated Gastric Fluid (FaSGF), Fasted State Simulated Intestinal Fluid (FaSSIF) and Fed State Simulated Intestinal Fluid (FeSSIF) was compared, so as to provide a basis for evaluating the druggability of the crystal form and salt.
About 2 to 3 mg of crystal forms I, II and III of the free base of Example 40 were weighed, suspended in 1 mL of Fasted State Simulated Gastric Fluid (FaSSGF), Fasted State Simulated Intestinal Fluid (FaSSIF), Fed State Simulated Intestinal Fluid (FeSSIF) and pure water respectively, and shaked for 24 hours. Thermodynamic solubility of the compound at 37° C. was determined using HPLC by external standard method.

SMILES | solubility in n-heptane (in words) [1] | hygroscopicity (in words) [2] | Hygroscopicity (25° C./80% RH) [2] [%] | Solubility ([3]; FaSSGF) [µg/mL] | Solubility ([3]; FaSSIF) [µg/mL] | Solubility ([3]; FeSSIF) [µg/mL] | Solubility ([3]; Water) [µg/mL]
C[C@@H]1C[C@H](C(=O)Cn2ccc(C#N)n2)[C@@]2(C)CC[C@H]3[C@@H](CC[C@@H]4C[C@](C)(O)CC[C@@H]43)[C@H]12 [Crystal form II, 1-(2-((3R,5R,8R,9R,10S,13S,14S,15R,17S)-3-Hydroxy-3,13,15-trimethylhexadecahydro-1H-cyclopenta[a]phenanthren-17-yl)-2-oxoethyl)-1H-pyrazole-3-carbonitrile] | almost insoluble | no hygroscopicity | 0.03 | <1 | 3.705 (≈ 8.75 µM) | 18.495 (≈ 43.7 µM) | <1
C[C@@H]1C[C@H](C(=O)Cn2ccc(C#N)n2)[C@@]2(C)CC[C@H]3[C@@H](CC[C@@H]4C[C@](C)(O)CC[C@@H]43)[C@H]12 [Crystal form III, 1-(2-((3R,5R,8R,9R,10S,13S,14S,15R,17S)-3-Hydroxy-3,13,15-trimethylhexadecahydro-1H-cyclopenta[a]phenanthren-17-yl)-2-oxoethyl)-1H-pyrazole-3-carbonitrile] | almost insoluble | no hygroscopicity | 0.10 | <1 | 4.914 (≈ 11.6 µM) | 28.166 (≈ 66.5 µM) | <1
